Where a name gives a salt, the structure may show the parent alone.
Biological target: BACE1 (Homo sapiens (Human), UniProt P56817)
Experiment: BACE1 Cell-Free Assay (fluorescence polarization)
Assay type: biochemical
Settings: geometric mean of 2-4 determinations unless otherwise indicated (b: ≧5; c: single determination); read-out: BACE1 Cell-free Assay IC50
Text: This assay measures the inhibition of the beta-secretase enzyme as it cleaves a non-native peptide.
A synthetic APP substrate that can be cleaved by beta-secretase having N-terminal biotin and made fluorescent by the covalent attachment of Oregon Green at the Cys residue is used to assay beta-secretase activity in the presence or absence of the inhibitory compounds. […] The BACE1 enzyme is affinity purified material from conditioned media of CHO-K1 cells that have been transfected with a soluble BACE construct (BACE1deltaTM96His). […] Plates are covered and incubated for 3 hours at 37° C. […] The activity of the beta-secretase enzyme is detected by changes in the fluorescence polarization that occur when the substrate is cleaved by the enzyme.

BACE1, sequence (P56817 46-457): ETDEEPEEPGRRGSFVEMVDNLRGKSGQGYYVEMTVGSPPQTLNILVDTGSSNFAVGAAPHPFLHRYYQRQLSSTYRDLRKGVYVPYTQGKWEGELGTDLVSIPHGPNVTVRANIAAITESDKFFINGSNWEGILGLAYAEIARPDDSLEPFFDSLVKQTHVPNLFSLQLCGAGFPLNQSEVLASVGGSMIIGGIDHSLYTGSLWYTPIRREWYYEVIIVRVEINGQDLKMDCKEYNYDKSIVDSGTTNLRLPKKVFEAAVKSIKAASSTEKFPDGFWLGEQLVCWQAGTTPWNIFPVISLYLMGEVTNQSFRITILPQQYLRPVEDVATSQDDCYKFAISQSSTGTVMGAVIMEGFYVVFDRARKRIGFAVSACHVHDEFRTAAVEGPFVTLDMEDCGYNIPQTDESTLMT

Compared with `Cc1nc(C(=O)Nc2csc([C@]34CO[C@@H](C)C[C@H]3CSC(N)=N4)n2)no1` [Example 52, N-{2-[(4aR,6S,8aR)-2-amino-6-methyl-4,4a,5,6-tetrahydropyrano[3,4-d][1,3]thiazin-8a(8H)-yl]-1,3-thiazol-4-yl}-5-methyl-1,2,4-oxadiazole-3-carboxamide], `Cc1cc(C(=O)Nc2csc([C@]34CO[C@@H](C)C[C@H]3CSC(N)=N4)n2)no1` [Example 64, N-{2-[(4aR,6S,8aR)-2-amino-6-methyl-4,4a,5,6-tetrahydropyrano[3,4-d][1,3]thiazin-8a(8H)-yl]-1,3-thiazol-4-yl}-5-methyl-1,2-oxazole-3-carboxamide, trifluoroacetate salt] is 29-fold higher in IC50: 0.091 µM for the first, 2.62 µM for the second.

Compared with `Cc1nc(C(=O)Nc2csc([C@]34CO[C@@H](C)C[C@H]3CSC(N)=N4)n2)c(C)o1` [Example 53, N-{2-[(4aR,6S,8aR)-2-amino-6-methyl-4,4a,5,6-tetrahydropyrano[3,4-d][1,3]thiazin-8a(8H)-yl]-1,3-thiazol-4-yl}-2,5-dimethyl-1,3-oxazole-4-carboxamide], `Cc1nc(C)c(C(=O)Nc2csc([C@]34CO[C@@H](C)C[C@H]3CSC(N)=N4)n2)o1` [Example 59, N-{2-[(4aR,6S,8aR)-2-amino-6-methyl-4,4a,5,6-tetrahydropyrano[3,4-d][1,3]thiazin-8a(8H)-yl]-1,3-thiazol-4-yl}-2,4-dimethyl-1,3-oxazole-5-carboxamide, trifluoroacetate salt] is 11-fold higher in IC50: 0.065 µM for the first, 0.74 µM for the second. The first is the more potent here.

First: C[C@H]1C[C@H]2CSC(N)=N[C@@]2(c2nc(NC(=O)c3cnc(OCC4CC4)cn3)cs2)CO1 [Example 54, N-{2-[(4aR,6S,8aR)-2-amino-6-methyl-4,4a,5,6-tetrahydropyrano[3,4-d][1,3]thiazin-8a(8H)-yl]-1,3-thiazol-4-yl}-5-(cyclopropylmethoxy)pyrazine-2-carboxamide]
Second: C[C@H]1C[C@H]2CSC(N)=N[C@@]2(c2nc(NC(=O)c3cnc(OC4CC4)cn3)cs2)CO1 [Example 55, N-{2-[(4aR,6S,8aR)-2-amino-6-methyl-4,4a,5,6-tetrahydropyrano[3,4-d][1,3]thiazin-8a(8H)-yl]-1,3-thiazol-4-yl}-5-(cyclopropyloxy)pyrazine-2-carboxamide]
The IC50 of the first is 3.2-fold lower: 0.161 µM for the first, 0.519 µM for the second. The first is the more potent here.

`C[C@@H](F)COc1cnc(C(=O)Nc2csc([C@]34CO[C@@H](C)C[C@H]3CSC(N)=N4)n2)cn1` [Example 56, N-{2-[(4aR,6S,8aR)-2-amino-6-methyl-4,4a,5,6-tetrahydropyrano[3,4-d][1,3]thiazin-8a(8H)-yl]-1,3-thiazol-4-yl}-5-{[(2R)-2-fluoropropyl]oxy}pyrazine-2-carboxamide] and `C[C@H](F)COc1cnc(C(=O)Nc2csc([C@]34CO[C@@H](C)C[C@H]3CSC(N)=N4)n2)cn1` [Example 57, N-{2-[(4aR,6S,8aR)-2-amino-6-methyl-4,4a,5,6-tetrahydropyrano[3,4-d][1,3]thiazin-8a(8H)-yl]-1,3-thiazol-4-yl}-5-{[(2S)-2-fluoropropyl]oxy}pyrazine-2-carboxamide] are within 1.5-fold of each other in IC50: 0.36 µM for the first, 0.372 µM for the second.

Going from `C[C@H]1C[C@H]2CSC(N)=N[C@@]2(c2nc(NC(=O)c3cnc(OCC(C)(F)F)cn3)cs2)CO1` [Example 58, N-{2-[(4aR,6S,8aR)-2-amino-6-methyl-4,4a,5,6-tetrahydropyrano[3,4-d][1,3]thiazin-8a(8H)-yl]-1,3-thiazol-4-yl}-5-(2,2-difluoropropoxy)pyrazine-2-carboxamide] to `Cc1cnc(C(=O)Nc2csc([C@]34CO[C@@H](C)C[C@H]3CSC(N)=N4)n2)cn1` [Example 68, N-{2-[(4aR,6S,8aR)-2-amino-6-methyl-4,4a,5,6-tetrahydropyrano[3,4-d][1,3]thiazin-8a(8H)-yl]-1,3-thiazol-4-yl}-5-methylpyrazine-2-carboxamide, trifluoroacetate salt], the IC50 rises from 0.161 µM to 2.11 µM (13-fold).

First: C[C@H]1C[C@H]2CSC(N)=N[C@@]2(c2nc(NC(=O)c3cn(C)nc3C(F)(F)F)cs2)CO1 [Example 60, N-{2-[(4aR,6S,8aR)-2-amino-6-methyl-4,4a,5,6-tetrahydropyrano[3,4-d][1,3]thiazin-8a(8H)-yl]-1,3-thiazol-4-yl}-1-methyl-3-(trifluoromethyl)-1H-pyrazole-4-carboxamide, trifluoroacetate salt]
Second: Cc1cc(C(=O)Nc2csc([C@]34CO[C@@H](C)C[C@H]3CSC(N)=N4)n2)nn1C [Example 73, N-{2-[(4aR,6S,8aR)-2-amino-6-methyl-4,4a,5,6-tetrahydropyrano[3,4-d][1,3]thiazin-8a(8H)-yl]-1,3-thiazol-4-yl}-1,5-dimethyl-1H-pyrazole-3-carboxamide, trifluoroacetate salt]
The IC50 of the first is 3.2-fold lower: 3.84 µM for the first, 12.4 µM for the second. The first is the more potent here.

Compared with `CC(C)n1cnc(C(=O)Nc2csc([C@]34CO[C@@H](C)C[C@H]3CSC(N)=N4)n2)c1` [Example 61, N-{2-[(4aR,6S,8aR)-2-amino-6-methyl-4,4a,5,6-tetrahydropyrano[3,4-d][1,3]thiazin-8a(8H)-yl]-1,3-thiazol-4-yl}-1-(propan-2-yl)-1H-imidazole-4-carboxamide, trifluoroacetate salt], `C[C@H]1C[C@H]2CSC(N)=N[C@@]2(c2nc(NC(=O)c3cn(C)cn3)cs2)CO1` [Example 75, N-{2-[(4aR,6S,8aR)-2-amino-6-methyl-4,4a,5,6-tetrahydropyrano[3,4-d][1,3]thiazin-8a(8H)-yl]-1,3-thiazol-4-yl}-1-methyl-1H-imidazole-4-carboxamide, trifluoroacetate salt] is 9.9-fold higher in IC50: 1.83 µM for the first, 18.2 µM for the second. The first is the more potent here.

First: CC(C)Cc1cc(C(=O)Nc2csc([C@]34CO[C@@H](C)C[C@H]3CSC(N)=N4)n2)no1 [Example 62, N-{2-[(4aR,6S,8aR)-2-amino-6-methyl-4,4a,5,6-tetrahydropyrano[3,4-d][1,3]thiazin-8a(8H)-yl]-1,3-thiazol-4-yl}-5-(2-methylpropyl)-1,2-oxazole-3-carboxamide, trifluoroacetate salt]
Second: CC(C)Cc1cc(C(=O)Nc2csc([C@]34CO[C@@H](C)C[C@H]3CSC(N)=N4)n2)nn1C [Example 65, N-{2-[(4aR,6S,8aR)-2-amino-6-methyl-4,4a,5,6-tetrahydropyrano[3,4-d][1,3]thiazin-8a(8H)-yl]-1,3-thiazol-4-yl}-1-methyl-5-(2-methylpropyl)-1H-pyrazole-3-carboxamide, trifluoroacetate salt]
The IC50 of the first is 5.3-fold lower: 9.69 µM for the first, 51 µM for the second. The first is the more potent here.

Compared with `C[C@H]1C[C@H]2CSC(N)=N[C@@]2(c2nc(NC(=O)c3cnn(C)c3)cs2)CO1` [Example 63, N-{2-[(4aR,6S,8aR)-2-amino-6-methyl-4,4a,5,6-tetrahydropyrano[3,4-d][1,3]thiazin-8a(8H)-yl]-1,3-thiazol-4-yl}-1-methyl-1H-pyrazole-4-carboxamide, trifluoroacetate salt], `CCn1cc(C(=O)Nc2csc([C@]34CO[C@@H](C)C[C@H]3CSC(N)=N4)n2)cn1` [Example 72, N-{2-[(4aR,6S,8aR)-2-amino-6-methyl-4,4a,5,6-tetrahydropyrano[3,4-d][1,3]thiazin-8a(8H)-yl]-1,3-thiazol-4-yl}-1-ethyl-1H-pyrazole-4-carboxamide, trifluoroacetate salt] is 1.9-fold higher in IC50: 3.94 µM for the first, 7.48 µM for the second.

Compared with `C[C@H]1C[C@H]2CSC(N)=N[C@@]2(c2nc(NC(=O)c3ccncn3)cs2)CO1` [Example 66, N-{2-[(4aR,6S,8aR)-2-amino-6-methyl-4,4a,5,6-tetrahydropyrano[3,4-d][1,3]thiazin-8a(8H)-yl]-1,3-thiazol-4-yl}pyrimidine-4-carboxamide, trifluoroacetate salt], `C[C@H]1C[C@H]2CSC(N)=N[C@@]2(c2nc(NC(=O)c3ncnn3C)cs2)CO1` [Example 74, N-{2-[(4aR,6S,8aR)-2-amino-6-methyl-4,4a,5,6-tetrahydropyrano[3,4-d][1,3]thiazin-8a(8H)-yl]-1,3-thiazol-4-yl}-1-methyl-1H-1,2,4-triazole-5-carboxamide, trifluoroacetate salt] is 7.9-fold higher in IC50: 0.575 µM for the first, 4.56 µM for the second. The first is the more potent here.

Going from `Cc1cc(C(=O)Nc2csc([C@]34CO[C@@H](C)C[C@H]3CSC(N)=N4)n2)on1` [Example 67, N-{2-[(4aR,6S,8aR)-2-amino-6-methyl-4,4a,5,6-tetrahydropyrano[3,4-d][1,3]thiazin-8a(8H)-yl]-1,3-thiazol-4-yl}-3-methyl-1,2-oxazole-5-carboxamide, trifluoroacetate salt] to `CCc1cc(C(=O)Nc2csc([C@]34CO[C@@H](C)C[C@H]3CSC(N)=N4)n2)on1` [Example 71, N-{2-[(4aR,6S,8aR)-2-amino-6-methyl-4,4a,5,6-tetrahydropyrano[3,4-d][1,3]thiazin-8a(8H)-yl]-1,3-thiazol-4-yl}-3-ethyl-1,2-oxazole-5-carboxamide, trifluoroacetate salt], the IC50 rises from 5.04 µM to 9.26 µM (1.8-fold). The first is the more potent here.

Compared with `CC(C)c1cc(C(=O)Nc2csc([C@]34CO[C@@H](C)C[C@H]3CSC(N)=N4)n2)n(C)n1` [Example 70, N-{2-[(4aR,6S,8aR)-2-amino-6-methyl-4,4a,5,6-tetrahydropyrano[3,4-d][1,3]thiazin-8a(8H)-yl]-1,3-thiazol-4-yl}-1-methyl-3-(propan-2-yl)-1H-pyrazole-5-carboxamide, trifluoroacetate salt], `C[C@H]1C[C@H]2CSC(N)=N[C@@]2(c2nc(NC(=O)c3cn(C)nn3)cs2)CO1` [Example 76, N-{2-[(4aR,6S,8aR)-2-amino-6-methyl-4,4a,5,6-tetrahydropyrano[3,4-d][1,3]thiazin-8a(8H)-yl]-1,3-thiazol-4-yl}-1-methyl-1H-1,2,3-triazole-4-carboxamide, trifluoroacetate salt] is 2.7-fold higher in IC50: 10.4 µM for the first, 28.1 µM for the second.

Source: patent publication US9315520B2, “2-amino-6-methyl-4,4a,5,6-tetrahydropyrano[3,4-d][1,3]thiazin-8a(8H)-yl-1,3-thiazol-4-yl amides” (Pfizer Inc., priority 2014, dated 2016)
